Assay results as given in ChEMBL document CHEMBL3885861, “Open TG-GATES”.

Organism: Rattus norvegicus
Experiment: Open TG-GATES - Regimen: Single
Format: toxicity, organism-based, Sprague-Dawley
Set-up: regimen Single, gender Male, age 6 weeks
Conditions: in vivo, po, 60 mg/kg, route gavage, dose level Low; for APTT / Bas / Eos / Fbg / Hb / Ht / MCH / MCHC / MCV / Mono / PT / Plat / RBC / Ret / WBC: tissue Blood; for ALP / ALT / CRE / DBIL / GLC / IP / K / LDH / Na / PL / RALB / TBIL / TC / TG / TP / gamma-GTP: tissue Plasma

In the case of CCN(CC)C(=S)SSC(=S)N(CC)CC, the TERMINAL_BW (3 h) is reported as 215.7 g, the APTT (3 h) is reported as 20.7 s and the Bas (3 h) is reported as 0%. The Eos (3 h) was 0.6%, the Fbg (3 h) was 298.2 mg/dL and the Hb (3 h) was 12.9 g/dL. For the same compound, the Ht (3 h) was 39.9%, the MCH (3 h) was 20.2 pg and the MCHC (3 h) was 32.3%. The MCV (3 h) was 62.6 fL, the Mono (3 h) was 3.6% and the PT (3 h) was 16.3 s. The Plat (3 h) was 128.9 x10_4/uL, the RBC (3 h) was 638.2 x10_4/ul and the Ret (3 h) was 8.8%. It also gave a WBC (3 h) of 84.6 x10_2/uL, an ALP (3 h) of 1871.6 IU/L and an ALT (3 h) of 41.6 IU/L. It also gave a CRE (3 h) of 0.1 mg/dL, a DBIL (3 h) of 0.002 mg/dL and a GLC (3 h) of 178.2 mg/dL. It also gave an IP (3 h) of 8.8 mg/dL, a K (3 h) of 4.1 meq/L and an LDH (3 h) of 188.6 IU/L. For the same compound, the Na (3 h) was 141.4 meq/L, the PL (3 h) was 128.6 mg/dL and the RALB (3 h) was 3.2 g/dL. The TBIL (3 h) was 0.016 mg/dL, the TC (3 h) was 71 mg/dL and the TG (3 h) was 70 mg/dL. For the same compound, the TP (3 h) was 5.5 g/dL, the gamma-GTP (3 h) was 1.4 IU/L and the TERMINAL_BW (6 h) was 211.5 g. The APTT (6 h) was 23.2 s, the Bas (6 h) was 0% and the Eos (6 h) was 0.8%. The Fbg (6 h) was 293 mg/dL, the Hb (6 h) was 13.2 g/dL and the Ht (6 h) was 40.9%. For the same compound, the MCH (6 h) was 20.3 pg, the MCHC (6 h) was 32.4% and the MCV (6 h) was 62.6 fL. It also gave a Mono (6 h) of 3.4%, a PT (6 h) of 16.3 s and a Plat (6 h) of 125.2 x10_4/uL. The RBC (6 h) was 653.8 x10_4/ul, the Ret (6 h) was 7.3% and the WBC (6 h) was 99 x10_2/uL. The ALP (6 h) was 1256.6 IU/L, the ALT (6 h) was 36.4 IU/L and the CRE (6 h) was 0.1 mg/dL. For the same compound, the DBIL (6 h) was 0 mg/dL, the GLC (6 h) was 179 mg/dL and the IP (6 h) was 9.1 mg/dL. For the same compound, the K (6 h) was 4.3 meq/L, the LDH (6 h) was 181.8 IU/L and the Na (6 h) was 141.6 meq/L. The PL (6 h) was 125.2 mg/dL, the RALB (6 h) was 3 g/dL and the TBIL (6 h) was 0.008 mg/dL. The TC (6 h) was 68.6 mg/dL, the TG (6 h) was 59.2 mg/dL and the TP (6 h) was 5.3 g/dL. It also gave a gamma-GTP (6 h) of 1 IU/L, a TERMINAL_BW (9 h) of 210.6 g and an APTT (9 h) of 23 s. The Bas (9 h) was 0%, the Eos (9 h) was 0.2% and the Fbg (9 h) was 307.2 mg/dL. It also gave a Hb (9 h) of 13.1 g/dL, a Ht (9 h) of 40.1% and an MCH (9 h) of 20.2 pg. It also gave an MCHC (9 h) of 32.5%, an MCV (9 h) of 62.3 fL and a Mono (9 h) of 2.6%. The PT (9 h) was 15.8 s, the Plat (9 h) was 121 x10_4/uL and the RBC (9 h) was 645 x10_4/ul. The Ret (9 h) was 7.5%, the WBC (9 h) was 93.7 x10_2/uL and the ALP (9 h) was 1515 IU/L. For the same compound, the ALT (9 h) was 32.8 IU/L, the CRE (9 h) was 0.1 mg/dL and the DBIL (9 h) was 0.002 mg/dL. For the same compound, the GLC (9 h) was 188.8 mg/dL, the IP (9 h) was 9.6 mg/dL and the K (9 h) was 4.1 meq/L. For the same compound, the LDH (9 h) was 160.4 IU/L, the Na (9 h) was 141.2 meq/L and the PL (9 h) was 149.4 mg/dL. The RALB (9 h) was 3.1 g/dL, the TBIL (9 h) was 0.018 mg/dL and the TC (9 h) was 81.6 mg/dL. The TG (9 h) was 99 mg/dL, the TP (9 h) was 5.5 g/dL and the gamma-GTP (9 h) was 1 IU/L. The TERMINAL_BW (24 h) was 213.4 g, the APTT (24 h) was 21.8 s and the Bas (24 h) was 0%. It also gave an Eos (24 h) of 0.4%, a Fbg (24 h) of 274.6 mg/dL and a Hb (24 h) of 12.6 g/dL. It also gave a Ht (24 h) of 39%, an MCH (24 h) of 20.3 pg and an MCHC (24 h) of 32.3%. It also gave an MCV (24 h) of 62.9 fL, a Mono (24 h) of 2% and a PT (24 h) of 16.6 s. For the same compound, the Plat (24 h) was 117.1 x10_4/uL, the RBC (24 h) was 620.4 x10_4/ul and the Ret (24 h) was 7%. For the same compound, the WBC (24 h) was 124.3 x10_2/uL, the ALP (24 h) was 1307.4 IU/L and the ALT (24 h) was 33.8 IU/L. It also gave a CRE (24 h) of 0.2 mg/dL, a DBIL (24 h) of 0 mg/dL and a GLC (24 h) of 178 mg/dL. For the same compound, the IP (24 h) was 6.5 mg/dL, the K (24 h) was 4.3 meq/L and the LDH (24 h) was 187.8 IU/L. The Na (24 h) was 141.4 meq/L, the PL (24 h) was 128.2 mg/dL and the RALB (24 h) was 2.8 g/dL. For the same compound, the TBIL (24 h) was 0.006 mg/dL, the TC (24 h) was 74.6 mg/dL and the TG (24 h) was 98 mg/dL. For the same compound, the TP (24 h) was 5.1 g/dL and the gamma-GTP (24 h) was 1 IU/L.
